Literature values in US20130338095A1, “Chemosensory Receptor Ligand-Based Therapies” (ELCELYX THERAPEUTICS, INC., priority 2010, published 2013).

biological target: T1, sweet receptor (Homo sapiens, UniProt Q7RTX0+Q8TE23); conditions: relative sweetness on a weight comparison basis to sucrose (=1.0)
T1 sequence (Q8TE23 20-839): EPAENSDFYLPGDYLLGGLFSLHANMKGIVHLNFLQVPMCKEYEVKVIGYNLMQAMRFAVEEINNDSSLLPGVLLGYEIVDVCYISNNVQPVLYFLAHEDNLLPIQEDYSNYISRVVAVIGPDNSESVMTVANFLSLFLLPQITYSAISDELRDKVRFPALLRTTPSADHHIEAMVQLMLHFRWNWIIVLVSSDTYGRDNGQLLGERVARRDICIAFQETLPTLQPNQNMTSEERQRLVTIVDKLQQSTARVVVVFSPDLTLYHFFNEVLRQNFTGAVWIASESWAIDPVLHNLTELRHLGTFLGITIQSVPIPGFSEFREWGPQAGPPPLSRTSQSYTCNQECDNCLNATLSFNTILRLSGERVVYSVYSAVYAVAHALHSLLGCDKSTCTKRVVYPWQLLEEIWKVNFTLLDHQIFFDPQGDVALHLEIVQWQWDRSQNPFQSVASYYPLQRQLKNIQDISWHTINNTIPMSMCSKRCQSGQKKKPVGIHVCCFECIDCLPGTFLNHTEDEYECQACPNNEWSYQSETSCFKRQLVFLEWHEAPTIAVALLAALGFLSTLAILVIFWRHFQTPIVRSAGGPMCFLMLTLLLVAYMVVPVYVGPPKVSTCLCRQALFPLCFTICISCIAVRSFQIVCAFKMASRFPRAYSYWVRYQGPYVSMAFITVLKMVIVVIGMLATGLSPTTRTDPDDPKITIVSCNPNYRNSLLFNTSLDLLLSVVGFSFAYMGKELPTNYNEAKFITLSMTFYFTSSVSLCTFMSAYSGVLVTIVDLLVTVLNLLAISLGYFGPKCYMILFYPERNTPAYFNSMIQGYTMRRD
T1 sequence (Q7RTX0 21-852): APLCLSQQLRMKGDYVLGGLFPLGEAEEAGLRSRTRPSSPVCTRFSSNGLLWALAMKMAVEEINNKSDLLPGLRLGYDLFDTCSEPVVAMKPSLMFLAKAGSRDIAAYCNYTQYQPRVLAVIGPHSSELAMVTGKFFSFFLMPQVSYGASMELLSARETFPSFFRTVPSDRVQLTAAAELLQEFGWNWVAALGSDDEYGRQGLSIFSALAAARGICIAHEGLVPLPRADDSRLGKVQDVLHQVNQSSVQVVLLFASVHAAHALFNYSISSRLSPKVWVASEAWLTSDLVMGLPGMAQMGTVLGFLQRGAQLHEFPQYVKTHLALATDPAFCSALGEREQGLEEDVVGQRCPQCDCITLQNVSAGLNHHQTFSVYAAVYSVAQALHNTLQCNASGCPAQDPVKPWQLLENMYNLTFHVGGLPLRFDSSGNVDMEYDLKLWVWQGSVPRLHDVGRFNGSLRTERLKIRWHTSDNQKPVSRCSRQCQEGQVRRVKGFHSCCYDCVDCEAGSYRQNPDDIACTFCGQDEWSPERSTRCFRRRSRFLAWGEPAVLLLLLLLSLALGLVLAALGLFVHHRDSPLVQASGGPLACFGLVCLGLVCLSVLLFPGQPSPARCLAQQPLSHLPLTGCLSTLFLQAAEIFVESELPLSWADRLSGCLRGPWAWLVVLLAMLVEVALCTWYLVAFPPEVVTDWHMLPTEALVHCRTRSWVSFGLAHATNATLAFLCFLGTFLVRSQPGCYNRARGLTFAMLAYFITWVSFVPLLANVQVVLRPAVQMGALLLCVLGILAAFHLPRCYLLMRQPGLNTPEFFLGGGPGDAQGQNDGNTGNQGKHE

Molecule	Sweetness/potency
C[C@@H]1O[C@@H](O[C@H]2O[C@@H]([C@@H](C)C3CC[C@@H]4[C@H]5CC(=O)[C@@H]6C[C@H](O[C@@H]7O[C@H](CO)[C@@H](O)[C@H](O)[C@H]7O[C@@H]7O[C@@H](C)[C@H](O)[C@@H](O)[C@H]7O)CC[C@]6(C)[C@@H]5CC[C@]34C)CC[C@@H]2C)[C@H](O)[C@H](O)[C@H]1O (stereo partly drawn) [Osladin]	500
COc1c(O)cc2c(c1O)C(=O)[C@H](OC(C)=O)[C@@H](c1ccc(O)cc1)O2 [(2R,3R)-2,3-Dihydro-5,7,4′-trihydroxy-6-methoxy-3-O-acetylflavonol]	20
CC1(C(=O)O)C=C2C3CCC4C5(C=O)CCC(OC6OC(C(=O)O)C(O)C(O)C6OC6OCC(O)C(O)C6O)C(C)(C)C5CCC4(C)C3(C)CCC2(C)CC1 (stereo not drawn) [Periandrin V]	220
Rebaudioside C	30
CC1(C)[C@@H](O[C@@H]2O[C@H](C(=O)O)[C@@H](O)[C@H](O)[C@H]2O[C@@H]2O[C@H](C(=O)O)[C@@H](O)[C@H](O)[C@H]2O)CC[C@]2(C=O)[C@H]3CC[C@@H]4C5=C[C@@](C)(C(=O)O)CC[C@]5(C)CC[C@@]4(C)[C@]3(C)CC[C@@H]12 [Periandrin I]	90
Cyclocarioside A	200
Oc1cc2c(cc1O)[C@@H]1c3ccc(O)c(O)c3OC[C@]1(O)C2 [Hematoxylin]	120
CC[C@@H](C)C(=O)O[C@@H](C)[C@]1(O)CC[C@]2(O)[C@@H]3CC[C@H]4C[C@@H](O[C@@H]5C[C@H](O)[C@H](O[C@H]6C[C@H](OC)[C@H](O[C@H]7C[C@@H](OC)[C@H](O[C@H]8C[C@@H](OC)[C@H](O[C@@H]9O[C@H](C)[C@@H](O[C@@H]%10O[C@H](CO)[C@@H](O)[C@H](O)[C@H]%10O)[C@H](OC)[C@H]9O)[C@@H](C)O8)[C@@H](C)O7)[C@@H](C)O6)[C@@H](C)O5)CC[C@]4(C)[C@H]3C[C@@H](OC(C)=O)[C@]12C [Telosmoside A15]	1000
Periandrin IV	85
COc1ccc([C@H]2Cc3cccc(O)c3C(=O)O2)cc1O [Phyllodulcin]	400
C=C1C[C@@]23CC[C@H]4[C@@](C)(CCC[C@@]4(C)C(=O)O[C@@H]4O[C@H](CO)[C@@H](O)[C@H](O)[C@H]4O)[C@@H]2CC[C@]1(O[C@@H]1O[C@H](CO)[C@@H](O)[C@H](O)[C@H]1O[C@@H]1O[C@@H](C)[C@H](O)[C@@H](O)[C@H]1O)C3 [Dulcoside A]	30
C=C1C[C@@]23CC[C@H]4[C@@](C)(CCC[C@@]4(C)C(=O)O)[C@@H]2CC[C@]1(O[C@@H]1O[C@H](CO)[C@@H](O)[C@H](O)[C@H]1O[C@@H]1O[C@H](CO)[C@@H](O)[C@H](O)[C@H]1O)C3 [Steviolbioside]	90
C=C(C)C1CCC2(C)C(CC(OC3OCC(O)C(O)C3O)C3C(C(C)(O)C/C=C/C(C)(C)O)CCC32C)C1(C)CCC(=O)O (stereo not drawn) [Pterocaryoside B]	100
COc1ccc(C2Oc3cc(O)cc(O)c3C(=O)C2OC(C)=O)cc1O (stereo not drawn) [Dihydroquercetin 3-O-acetate 4′-methyl ether]	400
CC1(C(=O)O)CCC2(C)CCC3(C)C(=CC(=O)C4C5(C)CCC(OC6OC(C(=O)O)C(O)C(O)C6OC6OCC(O)(CO)C6O)C(C)(C)C5CCC43C)C2C1 (stereo not drawn) [Apioglycyrrhizin]	300
Brazzein (QDKCKKVYENYPVSKCQLANQCNYDCKLDKHARSGECFYDEKRNLQCICDYCEY; UniProt P56552 1-54, looked up) [sweet protein from Pentadiplandra brazzeana]	2,000
C/C=C/c1ccc(OC)cc1 [trans-Anethole]	13
CC(=O)O[C@H]1C(=O)c2c(O)cc(O)cc2O[C@@H]1c1ccc(O)c(O)c1 [(2R,3R)-Dihydroquercetin 3-O-acetate]	80
CC1(C(=O)O)C=C2C3CCC4C5(CO)CCC(OC6OC(C(=O)O)C(O)C(O)C6OC6OC(C(=O)O)C(O)C(O)C6O)C(C)(C)C5CCC4(C)C3(C)CCC2(C)CC1 (stereo not drawn) [Periandrin III]	92
C/C(=C\CO)CCC1=C(C=O)CC(OC2OCC(O)C(O)C2O)C2C(C)(CO)CCCC12C (stereo not drawn) [Gaudichaudioside A]	55

Molecule	Sweetness/potency
CC1=CC[C@@H]([C@@H](C)[C@H]2CC[C@@]3(C)[C@@H]4CC[C@H]5[C@](C)(C(=O)O)[C@@H](O[C@@H]6O[C@H](CO)[C@@H](O)[C@H](O)[C@H]6O[C@@H]6O[C@H](C(=O)O)[C@@H](O)[C@H](O)[C@H]6O)CC[C@@]56C[C@@]46CC[C@]23C)OC1=O [Abrusoside D]	75
CC(C)=CCC[C@](C)(O)[C@@H]1CCC(C)=CC1=O [(+)-Hernandulcin]	1,500
Pterocaryoside A	50
O=C/C=C/c1ccccc1 [Trans-Cinnamaldehyde]	50
Thaumatin	1,600
COc1ccc(CCC(=O)c2c(O)cc(O[C@@H]3O[C@H](CO)[C@@H](O)[C@H](O)[C@H]3O[C@@H]3O[C@@H](C)[C@H](O)[C@@H](O)[C@H]3O)cc2O)cc1O [Neohesperidin dihydrochalcone]	1,000
Pentadin	500
COc1c(O)cc2c(c1O)C(=O)[C@H](OC(C)=O)[C@@H](c1ccc(O)c(O)c1)O2 [(2R,3R)-2,3-Dihydro-5,7,3′,4′-tetrahydroxy-6-methoxy-3-O-acetylflavonol]	25
Rebaudioside B	150
Albiziasaponin B	600
C/C(=C\CC/C(C)=C/CO[C@@H]1O[C@H](CO)[C@@H](O)[C@H](O[C@@H]2O[C@@H](C)[C@H](O)[C@@H](O)[C@H]2O)[C@H]1O[C@@H]1O[C@@H](C)[C@H](O)[C@@H](O)[C@H]1O)CC/C=C(\C)CO[C@@H]1O[C@H](CO)[C@@H](O)[C@H](O[C@@H]2O[C@@H](C)[C@H](O)[C@@H](O)[C@H]2O)[C@H]1O[C@@H]1O[C@@H](C)[C@H](O)[C@@H](O)[C@H]1O [Mukurozioside IIb]	ca. 1
Polypodoside A	600
CC1(C)[C@@H](O[C@H]2O[C@H](C(=O)O)[C@@H](O)[C@H](O)[C@H]2O[C@@H]2OC[C@H](O)[C@H](O)[C@H]2O)CC[C@]2(C)[C@H]3C(=O)C=C4[C@@H]5C[C@@](C)(C(=O)O)CC[C@]5(C)CC[C@@]4(C)[C@]3(C)CC[C@@H]12 [Araboglycyrrhizin]	150
Cyclocaryoside I	250
Scandenoside R6	54
Oc1ccc([C@H]2Oc3c(c(O)cc4c3[C@H]3c5c(O)cc(O)cc5O[C@@](c5ccc(O)cc5)(O4)[C@@H]3O)[C@H](c3c(O)cc(O)c4c3O[C@H](c3ccc(O)cc3)[C@@H](O)C4)[C@H]2O)cc1 [Selligueain A]	35
CC1(C)C[C@H]2C3=CC[C@@H]4[C@@]5(C)CC[C@H](O[C@@H]6O[C@H](CO[C@@H]7OC[C@H](O)[C@H](O)[C@H]7O[C@@H]7OC[C@@H](O)[C@H](O)[C@H]7O)[C@@H](O)[C@H](O)[C@H]6O)C(C)(C)[C@@H]5CC[C@@]4(C)[C@]3(C)C[C@@H](O)[C@@]23C[C@@H]1OC3=O [Albiziasaponin A]	5
Carnosifloside V	51
Baiyunoside	500
